Assays:
[1] = target: T1, Porcine group 1B phospholipase A2 (pps PLA2) (Sus scrofa, UniProt P00592); assay: Example 8 fluorimetric PLA2 inhibition assay (PPyrPM), porcine enzyme; assay type: biochemical
T1 construct: purchased
Text: In this example, a fluorimetric assay procedure was used to evaluate the indole and indole-related compounds of the invention as inhibitors of group 1B phospholipase A2 (PLA2) from human, mouse and porcine. A description of this assay is found in articles: Leslie, C C and Gelb, M H (2004) Methods in Molecular Biology “Assaying phospholipase A2 activity”, 284:229-242; Singer, A G, et al. (2002) Journal of Biological Chemistry “Interfacial kinetic and binding properties of the complete set of human and mouse groups I, II, V, X, and XII secreted phospholipases A2”, 277:48535-48549, which are incorporated herein as references.
In general, this assay used a phosphatidylmethanol substrate with a pyrene fluorophore on the terminal end of the sn-2 fatty acyl chain. […] The effect of a given inhibitor and inhibitor concentration on human, mouse and porcine phospholipase was determined. […]
The following procedure was performed to evaluate the inhibitory potency of the evaluated compounds. • 1. […] The fluorescence was read using an excitation of 342 nm and an emission of 395 nm.
Evaluated compounds were tested in duplicate and their values were averaged to plot the inhibition curve and calculate the IC50. […] The IC50 was calculated using the BioDataFit 1.02 (Four Parameter Model) software package. […]

[2] = tested on: C57BL/6J mouse model of obesity; assay: Example 10 mouse diet-induced obesity; assay type: in vivo; settings: low fat control diet (D12328) with vs without test article
Text: The high-fat diet-fed C57BL/6J mouse model of human diabetes, originally introduced by Surwit and colleagues (Surwit, R S, et al. (1988) “Diet-induced type […] diabetes in C57BL/6J mice”, Diabetes 37: 1163-1167) is a widely accepted, clinically relevant, polygenic model that induces obesity, dyslipidemia, glucose- and insulin-resistance as early as 3 weeks after commencing the high fat diet (Winzell, M S and Ahren, B (2004) “The high-fat diet-fed mouse: a model for studying mechanisms and treatment of impaired glucose tolerance and type 2 diabetes”, Diabetes 53 Suppl 3: S215-219). This model was used to investigate the effects of indole and indole-related Test Articles. Avandia (rosiglitazone) was used as a control Test Article. […]
In these studies and the accompanying figures, Diet D12328 from Research Diets is referred to as the “Low Fat” or Control diet/chow, while Diet D12331 from Research Diets is referred to as the “High Fat” diet. […] The Test Article content was calculated such that ad libitum consumption by the animals would deliver doses (in mg of Test Article per kg animal weight per day) approximating those listed in Table 5.
Animals were maintained on the diets for up to eleven weeks. Body weights were recorded weekly. […] The serum was analyzed for glucose, total cholesterol, triglycerides (TG) and lysophospholipid (LPC) content. […]

[3] = Example 14 toxicology, daily oral gavage for 5 consecutive days; assay type: in vivo; settings: mice
Text: The purpose of this study was to evaluate the toxicity of indole and indole-related Test Articles when administered daily via oral gavage to mice for 5 consecutive days.
Assessment of toxicity was based on mortality; clinical signs, body weight, food consumption, clinical pathology, and macroscopic pathology data.

T1 sequence (P00592 23-146): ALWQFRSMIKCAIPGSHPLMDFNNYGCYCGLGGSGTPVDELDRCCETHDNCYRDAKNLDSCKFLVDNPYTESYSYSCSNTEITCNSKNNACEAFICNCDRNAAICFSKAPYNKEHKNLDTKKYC

SMILES: Cc1c(C(=O)C(N)=O)c2c(OCC(=O)NS(=O)(=O)CCCC(=O)O)cccc2n1Cc1ccccc1 [ILY-IV-40, 4-[2-(3-Aminooxalyl-1-benzyl-2-methyl-1H-indol-4-yloxy)-acetylsulfamoyl]-butyric acid]
- IC50 [1]: 1010 nM
- effect in animals fed a low fat control diet [2]: No or little effect
- clinical pathology differences between vehicle control group and treated groups attributable to test article [3]: no differences

Reference: patent publication US20090318492A1, “INDOLE COMPOUNDS HAVING C4-ACIDIC SUBSTITUENTS AND USE THEREOF AS PHOSPHOLIPASE-A2 INHIBITORS” (priority 2005, published 2009)
